Measured values from patent US3960837A, “Polyamine compounds and methods for their production” (Parke, Davis & Company, priority 1974, dated 1976).

Columns and labels:
Type in all cases: cell-based
Pseudomonas aeruginosa = assay: in vitro antibacterial screening, minimal inhibitory concentration, Pseudomonas aeruginosa; conditions: Pseudomonas aeruginosa (6 strains), average or approximate; Tryptic Soy broth; free base equivalent
Description: (§1) Aminotrideoxybutirosin A and its acid-addition salts posses antibacterial activity. They show activity when tested by well-recognized in vitro antibacterial screening procedures. […] Where more than a single strain of test organism is indicated an average or approximate minimal inhibitory concentration is given.

Staphylococcus aureus = assay: in vitro antibacterial screening, minimal inhibitory concentration, Staphylococcus aureus (butirosin resistant strain); conditions: Staphylococcus aureus (1 strain), Tryptic Soy broth, free base equivalent
Description: as §1
(§2) *Butirosin resistant strain

[1] = tested on: Pseudomonas aeruginosa Aquilar; assay: in vitro antibacterial screening, minimal inhibitory concentration, Pseudomonas aeruginosa Aquilar (butirosin resistant strain); conditions: Pseudomonas aeruginosa Aquilar (1 strain), Tryptic Soy broth, free base equivalent
Description: as §1, §2

Klebsiella pneumoniae = assay: in vitro antibacterial screening, minimal inhibitory concentration, Klebsiella pneumoniae; conditions: Klebsiella pneumoniae (1 strain); Tryptic Soy broth; free base equivalent
Description: as §1

Escherichia coli = assay: in vitro antibacterial screening, minimal inhibitory concentration, Escherichia coli; conditions: Escherichia coli (1 strain); Tryptic Soy broth; free base equivalent
Description: as §1

Serratia marcescens = assay: in vitro antibacterial screening, minimal inhibitory concentration, Serratia marcescens; conditions: Serratia marcescens (1 strain); Tryptic Soy broth; free base equivalent
Description: as §1

Enterobacter cloacae = assay: in vitro antibacterial screening, minimal inhibitory concentration, Enterobacter cloacae; conditions: Enterobacter cloacae (1 strain); Tryptic Soy broth; free base equivalent
Description: as §1

Molecule	MIC (Pseudomonas aeruginosa) [µg/mL]	MIC (Staphylococcus aureus) [µg/mL]	MIC [1] [µg/mL]	MIC (Klebsiella pneumoniae) [µg/mL]	MIC (Escherichia coli) [µg/mL]	MIC (Serratia marcescens) [µg/mL]	MIC (Enterobacter cloacae) [µg/mL]	Minimal Inhibitory Concentration (Pseudomonas aeruginosa) [micrograms/ml]	Minimal Inhibitory Concentration (Staphylococcus aureus) [micrograms/ml]	Minimal Inhibitory Concentration [1] [micrograms/ml]	Minimal Inhibitory Concentration (Klebsiella pneumoniae) [micrograms/ml]	Minimal Inhibitory Concentration (Escherichia coli) [micrograms/ml]	Minimal Inhibitory Concentration (Serratia marcescens) [micrograms/ml]	Minimal Inhibitory Concentration (Enterobacter cloacae) [micrograms/ml]
NCC[C@H](O)C(=O)N[C@@H]1C[C@H](N)[C@@H](O[C@H]2O[C@H](CN)CC[C@H]2N)[C@H](O[C@@H]2O[C@H](CN)[C@H](O)[C@H]2O)[C@H]1O [Aminotrideoxybutirosin A, O-2,6-Diamino-2,3,4,6-tetradeoxy-α-D-erythro-hexopyranosyl-(1→4)-O-[5-amino-5-deoxy-β-D-xylofuranosyl-(1→5)]-N^1-[(S)-4-amino-2-hydroxy-1-oxobutyl]-2-deoxystreptamine]	3.6	3.1	6.3	6.3	12.5	12.5	6.3							
Butirosin								19.8	50	> 200	6.3	> 200	25	6.3
